Experimental data as given in US7803769B2 (priority 2006, dated 2010).
Bridge positions count the residues as written; N and C are the ends. Square brackets hold non-standard residues; d marks the D form. Ends that are not written are not given here. Peptide text beside a SMILES is read from it. 1Nal = N[C@@H](Cc1cccc2ccccc12)C(=O)O

B1: FcLoop-L2-ShK-L2: ShK inserted into the human IgG1 Fc-loop with 2-Gly linkers on both sides (protein)
chain: MDKTHTCPPCPAPELLGGPSVFLFPPKPKDTLMISRTPEVTCVVVDVSHEDPEVKFNWYVDGVEVHNAKTKPREEQYNSTYRVVSVLTVLHQDWLNGKEYKCKVSNKALPAPIEKTISKAKGQPREPQVYTLPPSRDELGGRSCIDTIPKSRCTAFQCKHSMKYRLSFCRKTCGTCGGTKNQVSLTCLVKGFYPSDIAVEWESNGQPENNYKTTPPVLDSDGSFFLYSKLTVDKSRWQQGNVFSCSVMHEALHNHYTQKSLSLSPGK
modifications: Definition of Artificial Sequence: Synthetic protein
B2: FcLoop-L2-OsK1-L2: OsK1 inserted into the human IgG1 Fc-loop with 2-Gly linkers on both sides (protein)
chain: MDKTHTCPPCPAPELLGGPSVFLFPPKPKDTLMISRTPEVTCVVVDVSHEDPEVKFNWYVDGVEVHNAKTKPREEQYNSTYRVVSVLTVLHQDWLNGKEYKCKVSNKALPAPIEKTISKAKGQPREPQVYTLPPSRDELGGGVIINVKCKISRQCLEPCKKAGMRFGKCMNGKCHCTPKGGTKNQVSLTCLVKGFYPSDIAVEWESNGQPENNYKTTPPVLDSDGSFFLYSKLTVDKSRWQQGNVFSCSVMHEALHNHYTQKSLSLSPGK
modifications: Definition of Artificial Sequence: Synthetic protein

Key:
[1] = system: thapsigargin-induced IL-2 production in human whole blood
human Kv1.3 channel = human Kv1.3 channel (Homo sapiens, UniProt P22001); assay type: cell-based
human Kv1.3 channel, sequence (P22001 whole entry): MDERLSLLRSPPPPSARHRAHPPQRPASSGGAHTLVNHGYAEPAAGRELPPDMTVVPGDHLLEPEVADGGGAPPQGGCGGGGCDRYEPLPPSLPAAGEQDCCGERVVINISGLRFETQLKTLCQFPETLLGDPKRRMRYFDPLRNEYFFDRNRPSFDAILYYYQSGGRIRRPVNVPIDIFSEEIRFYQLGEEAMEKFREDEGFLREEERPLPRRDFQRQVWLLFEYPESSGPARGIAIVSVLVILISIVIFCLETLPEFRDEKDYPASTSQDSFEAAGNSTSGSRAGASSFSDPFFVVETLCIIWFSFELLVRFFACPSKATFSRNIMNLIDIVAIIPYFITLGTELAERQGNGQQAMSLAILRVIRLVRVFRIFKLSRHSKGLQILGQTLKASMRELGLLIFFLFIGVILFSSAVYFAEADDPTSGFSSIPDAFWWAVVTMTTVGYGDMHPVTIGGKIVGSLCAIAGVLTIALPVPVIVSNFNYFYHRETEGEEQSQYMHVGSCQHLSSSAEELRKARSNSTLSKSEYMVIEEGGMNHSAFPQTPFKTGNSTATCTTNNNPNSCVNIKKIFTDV

human Kv1.3 (CHO) = molecular target: T1, human Kv1.3 (CHO) (Homo sapiens, UniProt P22001); assay: cell-based
T1 construct: expressed in transfected cells
T1 sequence (P22001 whole entry): as above

human Kv1.1 (HEK293) = molecular target: T2, human Kv1.1 (HEK293) (Homo sapiens, UniProt Q09470); assay: cell-based
T2 construct: expressed in transfected cells; host or cells: HEK293
T2 sequence (Q09470 whole entry): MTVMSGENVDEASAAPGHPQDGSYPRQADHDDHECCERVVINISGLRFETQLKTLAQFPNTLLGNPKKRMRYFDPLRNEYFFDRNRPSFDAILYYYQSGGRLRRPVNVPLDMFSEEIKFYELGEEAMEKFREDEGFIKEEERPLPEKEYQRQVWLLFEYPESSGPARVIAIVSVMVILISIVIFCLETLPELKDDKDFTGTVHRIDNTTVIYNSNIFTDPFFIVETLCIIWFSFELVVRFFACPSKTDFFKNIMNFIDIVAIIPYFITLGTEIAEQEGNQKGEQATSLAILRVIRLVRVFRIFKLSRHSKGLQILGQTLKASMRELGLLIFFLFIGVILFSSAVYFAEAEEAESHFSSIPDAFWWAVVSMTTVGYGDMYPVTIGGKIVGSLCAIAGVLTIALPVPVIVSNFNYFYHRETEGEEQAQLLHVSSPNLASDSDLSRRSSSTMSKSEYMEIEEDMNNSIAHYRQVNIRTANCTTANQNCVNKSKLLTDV

Molecule	whole blood cytokine response (IL-2 and IFNg), blockade in words [1]	IC50 (human Kv1.3 (CHO)) [nM]	IC50 (human Kv1.1 (HEK293)) [nM]	also measured
CC[C@H](C)[C@@H]1NC(=O)[C@H](CCCCN)NC(=O)[C@@H](NC(=O)[C@H](CCCCN)NC(=O)[C@@H](NC(=O)[C@H](CC(N)=O)NC(=O)[C@@H](NC(=O)[C@@H](NC(=O)[C@@H](NC(=O)CN)C(C)C)[C@@H](C)CC)[C@@H](C)CC)C(C)C)CSSC[C@@H]2NC(=O)[C@H](CCCCN)NC(=O)CNC(=O)[C@H](Cc3ccccc3)NC(=O)[C@H](CCCNC(=N)N)NC(=O)[C@H](CCSC)NC(=O)CNC(=O)[C@H](C)NC(=O)[C@H](CCCCN)NC(=O)[C@H](CCCCN)NC(=O)[C@@H]3CSSC[C@@H](C(=O)N[C@H](C(=O)N4CCC[C@H]4C(=O)N[C@@H](CCCCN)C(=O)O)[C@@H](C)O)NC(=O)[C@H](Cc4c[nH]cn4)NC(=O)[C@H](CSSC[C@H](NC(=O)[C@H](CCC(N)=O)NC(=O)[C@H](CCCNC(=N)N)NC(=O)[C@H](CO)NC1=O)C(=O)N[C@@H](CC(C)C)C(=O)N[C@@H](CCC(=O)O)C(=O)N1CCC[C@H]1C(=O)N3)NC(=O)[C@H](CCCCN)NC(=O)CNC(=O)[C@H](CC(N)=O)NC(=O)[C@H](C)NC2=O [OSK1[Ala-29]] (H-GVIINVKCKISRQCLEPCKKAGMRFGKCANGKCHCTPK-OH; disulfide 8-28, 14-33, 18-35)	several orders of magnitude more potent			
Fc-L10-OSK1[K7S]: Fc-L10-OSK1 with lysine to serine at position 7				difference in Kv1.3 potency compared to Fc-L10-OSK1 (human Kv1.3 channel): 2 fold; fold less potent than the synthetic OSK1 toxin peptide (Kv1.3) (human Kv1.3 channel): approximately 10 fold
Fc-L10-OSK1[K7S,E16K,K20D]: Fc-L10-OSK1 with K7S, E16K and K20D substitutions				block of human Kv1.3 current (in words) (human Kv1.3 channel): significant decrease in potency as well as selectivity; fold less potent than the synthetic OSK1 toxin peptide (Kv1.3) (human Kv1.3 channel): approximately 21 fold
CC[C@H](C)[C@@H]1NC(=O)[C@H](CCCCN)NC(=O)[C@@H](NC(=O)[C@H](CCCCN)NC(=O)[C@@H](NC(=O)[C@H](CC(N)=O)NC(=O)[C@@H](NC(=O)[C@@H](NC(=O)[C@@H](NC(=O)CN)C(C)C)[C@@H](C)CC)[C@@H](C)CC)C(C)C)CSSC[C@@H]2NC(=O)[C@H](CCCCN)NC(=O)CNC(=O)[C@H](Cc3ccccc3)NC(=O)[C@H](CCCNC(=N)N)NC(=O)[C@H](CCSC)NC(=O)CNC(=O)[C@H](C)NC(=O)[C@H](CCCCN)NC(=O)[C@H](Cc3cccc4ccccc34)NC(=O)[C@@H]3CSSC[C@@H](C(=O)N[C@H](C(=O)N4CCC[C@H]4C(=O)N[C@@H](CCCCN)C(=O)O)[C@@H](C)O)NC(=O)[C@H](Cc4c[nH]cn4)NC(=O)[C@H](CSSC[C@H](NC(=O)[C@H](CCC(N)=O)NC(=O)[C@H](CCCNC(=N)N)NC(=O)[C@H](CO)NC1=O)C(=O)N[C@@H](CC(C)C)C(=O)N[C@@H](CCC(=O)O)C(=O)N1CCC[C@H]1C(=O)N3)NC(=O)[C@H](CCCCN)NC(=O)CNC(=O)[C@H](CC(N)=O)NC(=O)[C@H](CCSC)NC2=O [K19Nal] (H-GVIINVKCKISRQCLEPC[1Nal]KAGMRFGKCMNGKCHCTPK-OH; disulfide 8-28, 14-33, 18-35)		0.0172	< 0.00152	
CC[C@H](C)[C@@H]1NC(=O)[C@H](CCCCN)NC(=O)[C@@H](NC(=O)[C@H](CCCCN)NC(=O)[C@@H](NC(=O)[C@H](CC(N)=O)NC(=O)[C@@H](NC(=O)[C@@H](NC(=O)[C@@H](NC(=O)CN)C(C)C)[C@@H](C)CC)[C@@H](C)CC)C(C)C)CSSC[C@@H]2NC(=O)[C@H](CCCCN)NC(=O)CNC(=O)[C@H](Cc3ccccc3)NC(=O)[C@H](CCCNC(=N)N)NC(=O)[C@H](CCSC)NC(=O)CNC(=O)[C@H](C)NC(=O)[C@H](Cc3cccc4ccccc34)NC(=O)[C@H](CCCCN)NC(=O)[C@@H]3CSSC[C@@H](C(=O)N[C@H](C(=O)N4CCC[C@H]4C(=O)N[C@@H](CCCCN)C(=O)O)[C@@H](C)O)NC(=O)[C@H](Cc4c[nH]cn4)NC(=O)[C@H](CSSC[C@H](NC(=O)[C@H](CCC(N)=O)NC(=O)[C@H](CCCNC(=N)N)NC(=O)[C@H](CO)NC1=O)C(=O)N[C@@H](CC(C)C)C(=O)N[C@@H](CCC(=O)O)C(=O)N1CCC[C@H]1C(=O)N3)NC(=O)[C@H](CCCCN)NC(=O)CNC(=O)[C@H](CC(N)=O)NC(=O)[C@H](CCSC)NC2=O [K20Nal] (H-GVIINVKCKISRQCLEPCK[1Nal]AGMRFGKCMNGKCHCTPK-OH; disulfide 8-28, 14-33, 18-35)		0.0135	< 0.00152	
CC[C@H](C)[C@@H]1NC(=O)[C@H](CCCCN)NC(=O)[C@@H](NC(=O)[C@H](CCCCN)NC(=O)[C@H](CCCNC(=N)N)NC(=O)[C@H](CC(N)=O)NC(=O)[C@@H](NC(=O)[C@@H](NC(=O)[C@@H](NC(=O)CN)C(C)C)[C@@H](C)CC)[C@@H](C)CC)CSSC[C@@H]2NC(=O)[C@H](CCCCN)NC(=O)CNC(=O)[C@H](Cc3ccccc3)NC(=O)[C@H](CCCNC(=N)N)NC(=O)[C@H](CCSC)NC(=O)CNC(=O)[C@H](C)NC(=O)[C@H](CCCCN)NC(=O)[C@H](CCCCN)NC(=O)[C@@H]3CSSC[C@@H](C(=O)N[C@H](C(=O)N4CCC[C@H]4C(=O)N[C@@H](CCCCN)C(=O)O)[C@@H](C)O)NC(=O)[C@H](Cc4c[nH]cn4)NC(=O)[C@H](CSSC[C@H](NC(=O)[C@H](CCC(N)=O)NC(=O)[C@H](CCCNC(=N)N)NC(=O)[C@H](CO)NC1=O)C(=O)N[C@@H](CC(C)C)C(=O)N[C@@H](CCC(=O)O)C(=O)N1CCC[C@H]1C(=O)N3)NC(=O)[C@H](CCCCN)NC(=O)CNC(=O)[C@H](CC(N)=O)NC(=O)[C@H](CCSC)NC2=O [V6R] (H-GVIINRKCKISRQCLEPCKKAGMRFGKCMNGKCHCTPK-OH; disulfide 8-28, 14-33, 18-35)		0.00865	0.0024	
CC[C@H](C)[C@@H]1NC(=O)[C@H](CCCCN)NC(=O)[C@@H](NC(=O)[C@H](CCCCN)NC(=O)[C@@H](NC(=O)[C@H](CC(N)=O)NC(=O)[C@@H](NC(=O)[C@@H](NC(=O)[C@@H](NC(=O)CN)C(C)C)[C@@H](C)CC)[C@@H](C)CC)C(C)C)CSSC[C@@H]2NC(=O)[C@H](CCCCN)NC(=O)[C@H](Cc3cccc4ccccc34)NC(=O)[C@H](Cc3ccccc3)NC(=O)[C@H](CCCNC(=N)N)NC(=O)[C@H](CCSC)NC(=O)CNC(=O)[C@H](C)NC(=O)[C@H](CCCCN)NC(=O)[C@H](CCCCN)NC(=O)[C@@H]3CSSC[C@@H](C(=O)N[C@H](C(=O)N4CCC[C@H]4C(=O)N[C@@H](CCCCN)C(=O)O)[C@@H](C)O)NC(=O)[C@H](Cc4c[nH]cn4)NC(=O)[C@H](CSSC[C@H](NC(=O)[C@H](CCC(N)=O)NC(=O)[C@H](CCCNC(=N)N)NC(=O)[C@H](CO)NC1=O)C(=O)N[C@@H](CC(C)C)C(=O)N[C@@H](CCC(=O)O)C(=O)N1CCC[C@H]1C(=O)N3)NC(=O)[C@H](CCCCN)NC(=O)CNC(=O)[C@H](CC(N)=O)NC(=O)[C@H](CCSC)NC2=O [G26Nal] (H-GVIINVKCKISRQCLEPCKKAGMRF[1Nal]KCMNGKCHCTPK-OH; disulfide 8-28, 14-33, 18-35)		> 3.33	1.57	
SEQ ID No: 4989: OSK1 analog without beta strand 1 (des 1-7), Table 42 (CKISRQCLKPCKDAGMRFGKCMNGKCHC-NH2; ends and bridges not checked)	still retain activity in blocking inflammation			
CC[C@H](C)[C@@H]1NC(=O)[C@H](CCCCN)NC(=O)[C@@H](NC(=O)[C@H](CCCCN)NC(=O)[C@@H](NC(=O)[C@H](CC(N)=O)NC(=O)[C@@H](NC(=O)[C@@H](NC(=O)[C@@H](NC(=O)CN)C(C)C)[C@@H](C)CC)[C@@H](C)CC)C(C)C)CSSC[C@@H]2NC(=O)[C@H](CCCCN)NC(=O)CNC(=O)[C@H](Cc3ccccc3)NC(=O)[C@H](CCCNC(=N)N)NC(=O)[C@H](CCSC)NC(=O)CNC(=O)[C@H](C)NC(=O)[C@H](CCCCN)NC(=O)[C@H](CCCCN)NC(=O)[C@@H]3CSSC[C@@H](C(=O)N[C@H](C(=O)N4CCC[C@H]4C(=O)N[C@@H](CCCCN)C(=O)O)[C@@H](C)O)NC(=O)[C@H](Cc4c[nH]cn4)NC(=O)[C@H](CSSC[C@H](NC(=O)[C@H](CCC(N)=O)NC(=O)[C@H](CCCNC(=N)N)NC(=O)[C@H](CO)NC1=O)C(=O)N[C@@H](CC(C)C)C(=O)N[C@@H](CCC(=O)O)C(=O)N1CCC[C@H]1C(=O)N3)NC(=O)[C@H](CCCCN)NC(=O)[C@H](Cc1cccc3ccccc13)NC(=O)[C@H](CC(N)=O)NC(=O)[C@H](CCSC)NC2=O [G31Nal] (H-GVIINVKCKISRQCLEPCKKAGMRFGKCMN[1Nal]KCHCTPK-OH; disulfide 8-28, 14-33, 18-35)		0.0338	< 0.00152	
B1	potent blockade of the whole blood cytokine response in this assay, with IC50 values in the pM range			
B2	potent blockade of the whole blood cytokine response in this assay, with IC50 values in the pM range			
